For assay [1], the target named is Serine/threonine-protein kinase PAK 2 (Homo sapiens, UniProt Q13177).
Assay [2] deals with T1, Glycogen phosphorylase, brain form (Homo sapiens, UniProt P11216).
T1 sequence (P11216 whole entry): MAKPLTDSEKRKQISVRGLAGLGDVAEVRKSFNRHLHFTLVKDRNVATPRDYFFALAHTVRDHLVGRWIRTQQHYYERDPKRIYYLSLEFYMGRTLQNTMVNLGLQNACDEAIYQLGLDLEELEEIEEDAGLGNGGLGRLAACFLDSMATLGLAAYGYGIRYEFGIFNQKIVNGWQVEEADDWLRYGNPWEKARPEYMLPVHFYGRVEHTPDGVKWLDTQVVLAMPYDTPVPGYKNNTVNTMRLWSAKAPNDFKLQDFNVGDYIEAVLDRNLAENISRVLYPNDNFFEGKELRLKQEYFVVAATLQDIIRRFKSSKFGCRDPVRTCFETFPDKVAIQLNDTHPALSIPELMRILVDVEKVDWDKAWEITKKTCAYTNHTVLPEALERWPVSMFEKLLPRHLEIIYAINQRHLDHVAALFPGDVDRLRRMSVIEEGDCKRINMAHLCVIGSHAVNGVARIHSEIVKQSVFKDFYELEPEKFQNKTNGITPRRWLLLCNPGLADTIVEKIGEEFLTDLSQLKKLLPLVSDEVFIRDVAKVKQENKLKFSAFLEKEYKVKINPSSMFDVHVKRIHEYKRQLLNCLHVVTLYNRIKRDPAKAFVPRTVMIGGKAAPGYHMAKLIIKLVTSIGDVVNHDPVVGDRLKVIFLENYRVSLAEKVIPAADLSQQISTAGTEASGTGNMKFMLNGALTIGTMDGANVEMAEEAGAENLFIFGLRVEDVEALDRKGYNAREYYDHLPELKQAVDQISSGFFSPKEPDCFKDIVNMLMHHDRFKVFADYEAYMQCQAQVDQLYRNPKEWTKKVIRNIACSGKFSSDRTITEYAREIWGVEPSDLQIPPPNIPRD

The target of assay [3] is T2, Mitogen-activated protein kinase kinase kinase 3 (Homo sapiens, UniProt Q99759).
T2 sequence (Q99759 whole entry): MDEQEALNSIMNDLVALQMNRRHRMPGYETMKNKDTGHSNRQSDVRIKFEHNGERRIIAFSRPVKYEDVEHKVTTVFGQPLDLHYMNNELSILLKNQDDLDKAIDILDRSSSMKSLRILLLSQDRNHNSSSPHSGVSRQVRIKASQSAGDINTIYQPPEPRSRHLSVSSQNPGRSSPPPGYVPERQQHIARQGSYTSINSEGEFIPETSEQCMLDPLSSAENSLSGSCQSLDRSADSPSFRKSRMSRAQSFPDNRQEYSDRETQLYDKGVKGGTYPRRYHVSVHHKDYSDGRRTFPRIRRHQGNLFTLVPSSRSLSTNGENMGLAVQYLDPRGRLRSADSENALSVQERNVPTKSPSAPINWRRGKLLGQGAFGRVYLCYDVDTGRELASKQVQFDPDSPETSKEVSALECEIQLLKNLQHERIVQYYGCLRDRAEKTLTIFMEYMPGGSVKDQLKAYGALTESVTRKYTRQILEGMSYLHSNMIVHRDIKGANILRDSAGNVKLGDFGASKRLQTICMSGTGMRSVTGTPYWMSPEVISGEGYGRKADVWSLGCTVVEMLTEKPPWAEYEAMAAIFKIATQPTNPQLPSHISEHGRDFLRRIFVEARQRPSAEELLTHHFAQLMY

The target in assay [4] is T3, Serine/threonine-protein kinase 3 (Homo sapiens, UniProt Q13188).
T3 sequence (Q13188 whole entry): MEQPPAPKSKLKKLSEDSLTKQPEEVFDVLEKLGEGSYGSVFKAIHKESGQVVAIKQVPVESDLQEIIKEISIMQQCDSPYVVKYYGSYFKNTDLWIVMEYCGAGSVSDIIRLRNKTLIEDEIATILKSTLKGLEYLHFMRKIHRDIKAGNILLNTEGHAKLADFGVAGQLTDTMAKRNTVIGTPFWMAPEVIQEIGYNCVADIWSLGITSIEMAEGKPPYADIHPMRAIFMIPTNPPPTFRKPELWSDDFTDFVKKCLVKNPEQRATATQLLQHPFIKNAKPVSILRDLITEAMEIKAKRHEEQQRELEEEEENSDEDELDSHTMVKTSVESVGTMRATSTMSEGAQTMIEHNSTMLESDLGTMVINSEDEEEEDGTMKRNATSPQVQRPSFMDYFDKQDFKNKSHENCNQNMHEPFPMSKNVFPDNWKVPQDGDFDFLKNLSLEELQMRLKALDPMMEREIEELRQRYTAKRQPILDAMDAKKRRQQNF

Assay [5] concerns the target T4, Ferrochelatase, mitochondrial (Homo sapiens, UniProt P22830).
T4 sequence (P22830 whole entry): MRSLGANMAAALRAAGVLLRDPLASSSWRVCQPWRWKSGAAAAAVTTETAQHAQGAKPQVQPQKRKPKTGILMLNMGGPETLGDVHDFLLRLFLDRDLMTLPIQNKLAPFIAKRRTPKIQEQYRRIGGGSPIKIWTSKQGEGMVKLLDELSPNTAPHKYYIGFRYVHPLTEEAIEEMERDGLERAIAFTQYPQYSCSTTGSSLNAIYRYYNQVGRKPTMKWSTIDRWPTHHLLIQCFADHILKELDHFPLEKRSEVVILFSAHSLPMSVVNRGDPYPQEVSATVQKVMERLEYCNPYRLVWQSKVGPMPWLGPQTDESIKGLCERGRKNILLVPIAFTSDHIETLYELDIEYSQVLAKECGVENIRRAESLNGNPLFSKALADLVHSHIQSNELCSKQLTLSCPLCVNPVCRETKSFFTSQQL

Activity calls are given as the source filed them. Rule as the data show it, for most assays here: actives have a measured Kd and inactives only a lower limit.

These results are taken from ChEMBL document CHEMBL3991601, “The target landscape of clinical kinase drugs” (Science, 2017).
Also: in the data inactive means no Kd found up to 30 µM.

Chain of Serine/threonine-protein kinase PAK 2 (Q13177 whole entry): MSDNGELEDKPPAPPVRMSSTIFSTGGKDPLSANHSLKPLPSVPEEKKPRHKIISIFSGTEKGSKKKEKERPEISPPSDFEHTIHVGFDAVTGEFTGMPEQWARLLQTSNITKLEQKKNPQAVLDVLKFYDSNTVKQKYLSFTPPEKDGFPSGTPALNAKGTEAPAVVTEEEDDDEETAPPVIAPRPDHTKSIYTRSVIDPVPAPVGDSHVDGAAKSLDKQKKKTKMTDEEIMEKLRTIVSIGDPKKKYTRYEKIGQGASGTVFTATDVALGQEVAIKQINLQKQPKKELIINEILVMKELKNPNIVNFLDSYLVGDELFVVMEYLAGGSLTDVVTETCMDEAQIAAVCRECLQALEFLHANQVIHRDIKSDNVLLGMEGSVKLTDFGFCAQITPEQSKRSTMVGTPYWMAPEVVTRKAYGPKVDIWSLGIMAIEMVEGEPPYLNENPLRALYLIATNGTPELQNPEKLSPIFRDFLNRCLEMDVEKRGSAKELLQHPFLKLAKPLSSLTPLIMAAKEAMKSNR

For orientation: Kd means a measure of binding affinity in units of concentration. As to `O=c1[nH]c([C@@H]2CCCN2)nc2c1oc1ccc(Cl)cc12`, the Kd in assay [1], in assay [2], in assay [3], in assay [4] and in assay [5] was > 30 µM (inactive) each time.
As for `O=C(O)c1ccc2c(c1)nc(Nc1cccc(Cl)c1)c1ccncc12` [SILMITASERTIB], the Kd in assay [1], in assay [2], in assay [3], in assay [4] and in assay [5] was > 30 µM (inactive) each time.
Turning to `c1cc(OCCN2CCCCC2)cc(-c2n[nH]c3ccc(-c4nc[nH]n4)cc23)c1` [CC-401], the Kd was > 30 µM (inactive) in assay [1]; > 30 µM (inactive) in assay [2]; > 30 µM (inactive) in assay [3]; > 30 µM (inactive) in assay [4]; 32.4 µM (active) in assay [5].
In the case of `COc1cc2ncnc(Nc3ccc(O)cc3)c2cc1OC` [WHI-P131], the Kd in assay [1], in assay [2], in assay [3], in assay [4] and in assay [5] was > 30 µM (inactive) each time.
In the case of `CNC(=O)c1ccc(Nc2ncc(C(F)(F)F)c(NCc3nccnc3N(C)S(C)(=O)=O)n2)cc1` [DEFACTINIB], the Kd in assay [1] is > 30 µM (inactive); in assay [2], > 30 µM (inactive); in assay [3] it was > 30 µM (inactive); in assay [4], 4.95 µM (active); in assay [5], > 30 µM (inactive).
Turning to `CC[C@@](C)(Nc1ccnc(-c2c[nH]c3ncccc23)n1)C(=O)NCC(F)(F)F` [DECERNOTINIB], the Kd in assay [1], in assay [2], in assay [3], in assay [4] and in assay [5] was > 30 µM (inactive) throughout.
As to `O=S(=O)(c1cccc2c(O)nccc12)N1CCCNCC1` [HYDROXYFASUDIL], the Kd in assay [1], in assay [2], in assay [3], in assay [4] and in assay [5] was > 30 µM (inactive) throughout.
Turning to `CN1CCN(c2nc(C3=C(c4c[nH]c5ccccc45)C(=O)NC3=O)c3ccccc3n2)CC1` [SOTRASTAURIN], the Kd in assay [1], in assay [2], in assay [3], in assay [4] and in assay [5] was > 30 µM (inactive) each time.
Regarding `CCN1CCN(Cc2ccc(Nc3ncc(F)c(-c4cc(F)c5nc(C)n(C(C)C)c5c4)n3)nc2)CC1` [ABEMACICLIB], the Kd in assay [1], in assay [2], in assay [3], in assay [4] and in assay [5] was > 30 µM (inactive) throughout.
Turning to `C[C@@H]1COC(Nc2ccc3ncnc(Nc4ccc(OCc5nccs5)c(Cl)c4)c3c2)=N1` [VARLITINIB], the Kd is > 30 µM (inactive) in assay [1]; > 30 µM (inactive) in assay [2]; > 30 µM (inactive) in assay [3]; > 30 µM (inactive) in assay [4]; 76.4 µM in assay [5].
As for `C=CC(=O)Nc1cc(Nc2nccc(-c3cn(C)c4ccccc34)n2)c(OC)cc1N(C)CCN(C)C` [OSIMERTINIB], the Kd in assay [1], in assay [2], in assay [3], in assay [4] and in assay [5] was > 30 µM (inactive) throughout.
Consider `C=CCN(/C=C1/C(=O)O[C@H](COC)[C@@]2(C)C1=C(O)C(=O)C1=C2[C@H](OC(C)=O)C[C@]2(C)C(=O)CC[C@@H]12)CC=C` [SONOLISIB], for which the Kd in assay [1], in assay [2], in assay [3], in assay [4] and in assay [5] was > 30 µM (inactive) each time.
For the compound `COCCN1CCN(Cc2ccc(-c3n[nH]c4c3C(=O)c3c(NC(=O)NN5CCOCC5)cccc3-4)cc2)CC1` [RGB-286638], the Kd in assay [1], in assay [2], in assay [3], in assay [4] and in assay [5] was > 30 µM (inactive) in each case.
For the compound `COc1cccc(Nc2ncnn3ccc(CN4CC[C@@H](N)[C@H](O)C4)c23)c1` [BMS-690514], the Kd in assay [1] is > 30 µM (inactive); in assay [2], > 30 µM (inactive); in assay [3], 0.546 µM (active); in assay [4], > 30 µM (inactive); in assay [5], > 30 µM (inactive).
As to `Cn1c(=O)c(F)c(Nc2ccc(I)cc2F)c2c(=O)n(C[C@@H](O)CO)cnc21` [TAK-733], the Kd in assay [1], in assay [2], in assay [3], in assay [4] and in assay [5] was > 30 µM (inactive) each time.
Consider `COc1cc(Nc2ncc(F)c(Nc3ccc4c(n3)N(COP(=O)(O)O)C(=O)C(C)(C)O4)n2)cc(OC)c1OC` [FOSTAMATINIB], for which the Kd in assay [1], in assay [2], in assay [3], in assay [4] and in assay [5] was > 30 µM (inactive) throughout.
Consider `C#Cc1cccc(Nc2ncnc3cc4c(cc23)OCCOCCOCCO4)c1` [ICOTINIB], for which the Kd in assay [1], in assay [2], in assay [3], in assay [4] and in assay [5] was > 30 µM (inactive) throughout.
`Cn1cc(-c2[nH]c3cc(NC(=O)[C@H](N)C4CCCCC4)cc4c3c2C=NNC4=O)cn1`: the Kd in assay [1], in assay [2], in assay [3], in assay [4] and in assay [5] was > 30 µM (inactive) in each case.
As to `CC(C)(O)CC(=O)NCCn1ccc2ncnc(Nc3ccc(Oc4cccc(C(F)(F)F)c4)c(Cl)c3)c21` [TAK-285], the Kd in assay [1], in assay [2], in assay [3], in assay [4] and in assay [5] was > 30 µM (inactive) in each case.
For the compound `Cc1cc(C(=O)Nc2cc(Oc3ccc4nc(NC(=O)C5CC5)cn4n3)ccc2C)n(C)n1` [TAK-593], the Kd in assay [1], in assay [2], in assay [3], in assay [4] and in assay [5] was > 30 µM (inactive) each time.
